The target in test [1] is T1, Norepinephrine transporter (Rattus norvegicus, UniProt Q9WTR4). Nature of the test: Inhibition of [3H]mazindol binding to Norepinephrine transporter.
For test [2], the target named is Sodium-dependent serotonin transporter (Rattus norvegicus) (UniProt P31652). Nature of the test: Ratio of IC50(5-HT) to the IC50(DA).
Test [3] concerns the target Sodium-dependent serotonin transporter (Rattus norvegicus, UniProt P31652). Briefly: Inhibition of [3H]paroxetine binding to Serotonin transporter.
Test [4] has as its target T2, Sodium-dependent dopamine transporter (Rattus norvegicus, UniProt P23977). Nature of the test: Inhibition of [3H]WIN-35428l binding to Dopamine transporter.
Test [5] concerns the target T1, Norepinephrine transporter. Briefly: Compound was evaluated for the inhibition of [3H]mazindol binding to norepinephrine (NE) transporter.
For test [6], the target named is T2, Sodium-dependent dopamine transporter. Briefly: Compound was evaluated for the inhibition of [3H]WIN-35428l binding to dopamine transporter.

T1 sequence (Q9WTR4 whole entry): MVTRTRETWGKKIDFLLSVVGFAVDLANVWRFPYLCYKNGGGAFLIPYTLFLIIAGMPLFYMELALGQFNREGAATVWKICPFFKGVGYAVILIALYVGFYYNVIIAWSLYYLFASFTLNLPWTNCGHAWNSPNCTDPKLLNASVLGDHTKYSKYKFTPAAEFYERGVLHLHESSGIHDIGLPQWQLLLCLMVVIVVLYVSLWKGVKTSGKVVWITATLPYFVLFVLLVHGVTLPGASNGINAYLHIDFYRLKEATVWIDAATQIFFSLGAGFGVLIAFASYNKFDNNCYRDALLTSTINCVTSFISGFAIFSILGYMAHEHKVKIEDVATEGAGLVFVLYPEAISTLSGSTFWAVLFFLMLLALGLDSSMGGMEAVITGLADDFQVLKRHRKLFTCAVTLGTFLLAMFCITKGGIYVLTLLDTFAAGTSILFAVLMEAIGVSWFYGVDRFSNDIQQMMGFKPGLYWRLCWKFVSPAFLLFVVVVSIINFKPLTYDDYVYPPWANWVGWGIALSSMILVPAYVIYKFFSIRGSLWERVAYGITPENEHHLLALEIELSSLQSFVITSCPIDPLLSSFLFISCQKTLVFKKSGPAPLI
Sequence of Sodium-dependent serotonin transporter (P31652 whole entry): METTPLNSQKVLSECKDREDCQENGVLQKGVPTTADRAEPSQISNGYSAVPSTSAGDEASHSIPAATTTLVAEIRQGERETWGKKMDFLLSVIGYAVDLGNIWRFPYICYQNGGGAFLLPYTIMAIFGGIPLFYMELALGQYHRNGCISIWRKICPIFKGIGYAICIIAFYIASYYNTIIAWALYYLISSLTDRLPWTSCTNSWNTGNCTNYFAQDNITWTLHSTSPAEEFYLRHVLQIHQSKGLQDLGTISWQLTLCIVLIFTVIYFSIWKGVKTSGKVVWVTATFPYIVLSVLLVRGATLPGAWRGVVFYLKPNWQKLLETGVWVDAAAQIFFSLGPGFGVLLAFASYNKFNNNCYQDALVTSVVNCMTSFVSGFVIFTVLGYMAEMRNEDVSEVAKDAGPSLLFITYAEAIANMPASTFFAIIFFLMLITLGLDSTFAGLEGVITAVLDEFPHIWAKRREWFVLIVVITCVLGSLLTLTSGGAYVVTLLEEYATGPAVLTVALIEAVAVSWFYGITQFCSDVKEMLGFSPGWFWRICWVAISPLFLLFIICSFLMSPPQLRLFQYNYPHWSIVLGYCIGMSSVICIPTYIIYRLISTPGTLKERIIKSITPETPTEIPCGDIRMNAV
Sequence of Sodium-dependent serotonin transporter (Rattus norvegicus) (P31652 whole entry): as above
T2 sequence (P23977 whole entry): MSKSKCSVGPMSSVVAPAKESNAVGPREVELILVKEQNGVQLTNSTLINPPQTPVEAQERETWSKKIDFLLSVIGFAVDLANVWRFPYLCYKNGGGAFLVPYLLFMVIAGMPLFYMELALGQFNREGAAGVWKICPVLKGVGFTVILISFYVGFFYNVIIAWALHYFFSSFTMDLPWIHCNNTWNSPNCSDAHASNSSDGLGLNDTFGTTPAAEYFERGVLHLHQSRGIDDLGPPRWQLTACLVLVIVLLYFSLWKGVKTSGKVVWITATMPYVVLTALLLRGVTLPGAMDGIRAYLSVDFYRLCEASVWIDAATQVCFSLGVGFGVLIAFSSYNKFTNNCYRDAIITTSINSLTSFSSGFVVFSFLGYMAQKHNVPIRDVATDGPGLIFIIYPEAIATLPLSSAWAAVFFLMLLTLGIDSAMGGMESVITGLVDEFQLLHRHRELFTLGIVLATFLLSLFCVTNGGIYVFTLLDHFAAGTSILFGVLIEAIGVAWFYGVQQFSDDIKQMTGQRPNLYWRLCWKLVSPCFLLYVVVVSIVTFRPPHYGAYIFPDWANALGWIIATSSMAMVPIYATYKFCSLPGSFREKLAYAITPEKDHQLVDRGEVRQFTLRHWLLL

In general, IC50 refers to the concentration at which inhibition is half-maximal. Take `CN1C2CC[C@@H]1C[C@H](c1ccc(Cl)cc1)[C@@H]2C(=O)Oc1ccccc1`: the IC50 is 4570 nM in test [1], 2340 nM in test [3] and 1.99 nM in test [4]. The Ratio in test [2] was found to be 1170.
For `CC(C)OC(=O)[C@@H]1C2CC[C@H](C[C@@H]1c1ccc(Cl)cc1)N2C` the same measures were 2150 nM, 1400 nM, 1.41 nM and 996.
Regarding `COC(=O)[C@H]1[C@@H](c2ccc(F)cc2)C[C@H]2CC[C@H]1N2C`, the IC50 is 1240 nM in test [1] and 759 nM in test [3].
For `CN1C2CC[C@@H]1C[C@H](OC(=O)c1ccccc1)[C@@H]2C(=O)Oc1ccccc1`, the IC50 was 37400 nM in test [1], 57400 nM in test [3] and 112 nM in test [4]. For the same compound, the Ratio in test [2] was 512.
For the compound `Cc1ccc([C@H]2C[C@H]3CCC([C@H]2C(=O)OC(C)C)N3C)cc1`, the IC50 came to 4300 nM in test [1], 6410 nM in test [3] and 5.29 nM in test [4]. In addition, the Ratio in test [2] stood at 1210.
In test [1], `COC(=O)[C@@H]1C2CC[C@H](C[C@@H]1c1ccccc1)N2C` showed an IC50 of 2080 nM.
`CN1C2CC[C@@H]1C[C@H](OC(=O)c1ccccc1)[C@@H]2C(=O)OCCCc1ccccc1`: the IC50 in test [3] was determined as 374 nM; in test [5] it was 25100 nM.
In the case of `CC(C)OC(=O)[C@@H]1C2CC[C@H](C[C@@H]1c1ccc(I)cc1)N2C`, the IC50 in test [1] was 864 nM; in test [3], 310 nM; in test [4], 0.43 nM. Further, the Ratio in test [2] stood at 721.
As for `CCOC(=O)[C@@H]1C2CC[C@H](C[C@@H]1OC(=O)c1ccccc1)N2C`, the IC50 in test [1] came out at 26800 nM; in test [3], 9060 nM; in test [4], 130 nM. The Ratio in test [2] was determined as 70.
`CC(C)OC(=O)[C@@H]1C2CC[C@H](C[C@@H]1OC(=O)c1ccccc1)N2C`: the IC50 in test [1] is 23500 nM; in test [3] it was 25700 nM. For the same compound, in test [2], the Ratio is 122.
In turn, `COC(=O)[C@@H]1C2CC[C@H](C[C@@H]1c1ccc(C)cc1)N2C` had an IC50 in test [4] of 1.71 nM.
For the compound `COC(=O)C1C2CC[C@H](C[C@@H]1c1ccc(Cl)cc1)N2C` (some centres undefined), the IC50 in test [3] amounted to 44.5 nM.
Take `Cc1ccc([C@H]2C[C@H]3CCC([C@H]2C(=O)Oc2ccccc2)N3C)cc1`: the IC50 was 10800 nM in test [1], 29700 nM in test [3] and 3.27 nM in test [4]. In addition, the Ratio in test [2] was 9070.
Consider `COC(=O)[C@@H]1C2CC[C@H](C[C@@H]1c1ccc(I)cc1)N2C`, for which the results for the IC50 in test [1], in test [3] and in test [4] were 34.6 nM, 4.2 nM and 1.26 nM, respectively. Further, the Ratio in test [2] was 3.3.
On to `CCCOC(=O)[C@@H]1C2CC[C@H](C[C@@H]1OC(=O)c1ccccc1)N2C`, for which the IC50 in test [6] worked out at 191 nM; in test [3], 4130 nM; in test [5], 15800 nM.
For `CN1C2CC[C@@H]1C[C@H](c1ccc(I)cc1)[C@@H]2C(=O)Oc1ccccc1`, the half-inhibitory concentration (IC50) in test [1] came to 18300 nM; in test [3], 326 nM; in test [4], 1.51 nM. Further, the Ratio in test [2] stood at 216.

The values above are taken from ChEMBL document CHEMBL1125471, “Isopropyl and phenyl esters of 3 beta-(4-substituted phenyl)tropan-2 beta-carboxylic acids. Potent and selective compounds for the dopamine transporter” (J Med Chem, 1992).
